Consider 3 compounds from patent US5426099A, “Process for inducing analgesia, peptides and therapeutic compositions” (Rutgers, The State University of New Jersey, priority 1991, dated 1995).

Entries after “also recorded” stand apart in the source; their conditions may differ. Where no end group is shown, it is not given here. A value given as a limit tells only on which side of the number the result lay.

For one assay, the system named is ovarian granulosa. Also on record: key: + = Stimulation; - = Inhibition. The following applies: cited from earlier work.
The next assay has as its system vagina. On the set-up: key: + = Stimulation; - = Inhibition. The conditions noted are these: Fahrenkrug+ 88; cited from earlier work.
The next assay relates to heart. On the set-up: key: + = Stimulation; - = Inhibition. The following applies: Smitherman+ 88; cited from earlier work.
Another assay has as its system lumbo-sacral spinal cord. The conditions noted are these: administered to rats to the intrathecal space of the lumbo-sacral spinal cord; Komisaruk et al. 1988; cited from earlier work.
The subject of assay [1] is female Sprague-Dawley rats. As to the kind of experiment: Tail-flick latency to radiant heat. For orientation: Thermal pain tests record how soon the animal reacts.
For assay [2], the system named is periaqueductal gray matter. The conditions noted are these: administered to rats directly into the periaqueductal gray matter; Sullivan and Pert 1981; cited from earlier work.
The next assay relates to brain (IV vent.). Also on record: key: + = Stimulation; - = Inhibition. The following applies: Drucker-Colin+ 88; cited from earlier work.
The conditions of assay [3]: reported; cited from earlier work.
The next assay relates to trachea. The following applies: Said, Mutt+ 77; cited from earlier work.
Another assay has as its system bronchi. The conditions noted are these: Palmer+ 86; cited from earlier work.
Another assay relates to genital tract. Also on record: key: + = Stimulation; - = Inhibition. The conditions noted are these: Fahrenkrug+ 88; cited from earlier work.
For the next assay, the system named is pit. tumor cells. The conditions noted are these: Westendorf+ 83; cited from earlier work.
For a further assay, the system named is stomach. The following applies: Said, Mutt+ 77; cited from earlier work.
In another assay the test system is systemic. On the set-up: key to cardiac output / blood pressure / arterial blood flow: + = Stimulation; - = Inhibition. The conditions noted are these: Said, cited from earlier work.
In a further assay the test system is brain arteries. The following applies: Suzuki+ 84; cited from earlier work.
Another assay relates to skin. On the set-up: key: + = Stimulation; - = Inhibition. The conditions noted are these: Yanaihara+ 87; cited from earlier work.
The subject of the next assay is colon. On the set-up: key: + = Stimulation; - = Inhibition. The following applies: cited from earlier work.
The test system of another assay is uterus. The following applies: Morris+ 89; cited from earlier work.
For the next assay, the system named is brain (amygdala). Also on record: key: + = Stimulation; - = Inhibition. The following applies: Quik+ 79; cited from earlier work.
Another assay deals with Schwann cell. The following applies: Evans+; cited from earlier work.
A further assay relates to mononuclear cells. On the set-up: key: + = Stimulation; - = Inhibition. The following applies: Ottaway+ 83; cited from earlier work.
In a further assay the test system is colonic cells. On the set-up: key: + = Stimulation; - = Inhibition. The conditions noted are these: McCabe+ 88; cited from earlier work.
Another assay relates to cortical slices. Also on record: key: + = Stimulation; - = Inhibition. The conditions noted are these: Magistretti+ 84; cited from earlier work.
Another assay concerns pancreatic acini. Also on record: key: + = Stimulation; - = Inhibition. The conditions noted are these: Musso+ 88; cited from earlier work.
For the next assay, the system named is dienceph. cells. On the set-up: key: + = Stimulation; - = Inhibition. The following applies: Reichlin 88; cited from earlier work.
The subject of a further assay is kidney. On the set-up: key: + = Stimulation; - = Inhibition. The following applies: Porter+ 88; cited from earlier work.
Details of assay [4]: key: + = Stimulation; - = Inhibition. The conditions noted are these: Pandol+ 86; cited from earlier work.
Another assay relates to eye. On the set-up: key: + = Stimulation; - = Inhibition. The following applies: cited from earlier work.
A further assay deals with spinal cord cult. On the set-up: key: + = Stimulation; - = Inhibition. The conditions noted are these: Brenneman 88; cited from earlier work.
For assay [5] the following is noted: intrathecal injection; Cridland and Henry 1988; cited from earlier work.
The subject of another assay is arterial cells. Also on record: key: + = Stimulation; - = Inhibition. The following applies: Huang+ 84; cited from earlier work.
Another assay has as its system pancreatic cells. On the set-up: key: + = Stimulation; - = Inhibition. The following applies: Robberecht+ 76; cited from earlier work.
For a further assay, the system named is gastric mucosa. Also on record: key: + = Stimulation; - = Inhibition. The following applies: Sutliff+ 86; cited from earlier work.
The subject of assay [6] is female Sprague-Dawley rats. As to the kind of experiment: Vocalization threshold to tail shock. In kind it is in vivo, rat. The conditions noted are these: intrathecal; for elevation in vocalization threshold: 30 min. postinjection; for vocalization threshold compared with saline group (significance): sulfate. An excerpt:
Electrical stimulation (100 millisecond trains of 60 Hz square waveform at three-second intervals ranging from 0.01 to 0.4 mA in 0.01 mA increments) is applied (under computer control using a Commodore 64C computer and a Coulbourn constant current stimulator) to the surface of the tail via two lengths of blunt 18-ga stainless steel tubing coated with conductive gel (Spectra 360 Electrode Gel; Parker Laboratories Inc., Orange, N.J. 07050) and taped to the midsection of the tail 2 cm apart, parallel to the axis of the tail. An ascending/descending method of limits is used to estimate the threshold (in mA) to induce vocalization. In this method, an observer records whether or not vocalization occurs in response to each shock. If an animal vocalizes at a particular current intensity, the current intensity is then reduced stepwise until a shock no longer elicits a vocalization response. Then the current is increased stepwise until the animal again vocalizes, and so on, until all mA values for 6 such inversions are obtained. The vocalization threshold estimate is the mean of these 6 values.
The vocalization threshold to tail shock increased by 70% over baseline (pre-injection) levels by the first minute after the intrathecal injection of VIP 11-28 (molar quantity equivalent to 25 mcg VIP 11-28, hereafter referred to as 25 mcge [microgram equivalents]).
Female Sprague-Dawley rats weighing 250 g are used in the testing. The rats are ovariectomized and implanted surgically through the cisterna magna with an intrathecal catheter (i.t.) (PE 10 polyethylene tubing 7.5 cm length) at least 1 week before testing.

For the next assay, the system named is smooth muscle. As to the kind of experiment: Smooth muscle relaxant action.
Assay [7] has as its system female Sprague-Dawley rats. As to the kind of experiment: Vocalization threshold to tail shock. In kind it is in vivo, rat. The following applies: intravenous, 3 mg.

For `CC[C@H](C)[C@H](NC(=O)[C@H](CO)NC(=O)[C@H](CC(N)=O)NC(=O)[C@H](CC(C)C)NC(=O)[C@H](Cc1ccc(O)cc1)NC(=O)[C@H](CCCCN)NC(=O)[C@H](CCCCN)NC(=O)[C@@H](NC(=O)[C@H](C)NC(=O)[C@H](CCSC)NC(=O)[C@H](CCC(N)=O)NC(=O)[C@H](CCCCN)NC(=O)[C@H](CCCNC(=N)N)NC(=O)[C@H](CC(C)C)NC(=O)[C@H](CCCNC(=N)N)NC(=O)[C@@H](NC(=O)[C@H](Cc1ccc(O)cc1)NC(=O)[C@H](CC(N)=O)NC(=O)[C@H](CC(=O)O)NC(=O)[C@@H](NC(=O)[C@H](Cc1ccccc1)NC(=O)[C@@H](NC(=O)[C@H](C)NC(=O)[C@H](CC(=O)O)NC(=O)[C@H](CO)NC(=O)[C@@H](N)Cc1c[nH]cn1)C(C)C)[C@@H](C)O)[C@@H](C)O)C(C)C)C(=O)N[C@@H](CC(C)C)C(=O)N[C@@H](CC(N)=O)C(N)=O` [VIP 1-28, NH--His--Ser--Asp--Ala--Val--Phe--Thr--Asp--Asn--Tyr--Thr--Arg--Leu--Arg--Lys--Gln--Met--Ala--Val--Lys--Lys--Tyr--Leu--Asn--Ser--Ile--Leu--Asn--Amide], in the assay on ovarian granulosa (Johnson 88), the androgen secretion result is reported as “+”. Moreover, the progesterone secretion entry in the assay on ovarian granulosa (Johnson+ 88) is recorded as “+”. In addition, the lubrication entry in the assay with vagina is recorded as “+”. Moreover, the blood flow entry in the assay with heart and in the assay with genital tract was “+” each time. Also, the “analgesia through the central nervous system” value (in the assay with lumbo-sacral spinal cord; in assay [2]) was “induced analgesia” each time. For the same compound, in assay [1] (intrathecal, VIP 1-28 group), the “TFL elevation compared with saline group (significance)” value is on record as “approached, but did not reach, significance”. Besides, in the assay on brain (IV vent.), the REM sleep result is listed as “+”. In addition, the systemic vasodilator activity entry in assay [3] is given as “has systemic vasodilator activity”. In addition, the smooth muscle relaxation result in the assay on trachea and in the assay on stomach was “smooth muscle relaxation” each time. Also, in the assay with bronchi, the bronchodilation result is listed as “bronchodilation”. Also, the “ACTH, endorphin release” value in the assay with pit. tumor cells is on record as “ACTH, endorphin release”. The cardiac output result with systemic (Mutt 75) was “+”. Further, the hyperglycemia entry in the assay with systemic (Mutt 75) is reported as “hyperglycemia”. Moreover, the respiratory stimulation entry with systemic (Mutt 75) was “respiratory stimulation”. Also, the arterial blood flow entry in the assay on systemic (Mutt+ 77) is recorded as “+”. Also, the blood pressure result in the assay with systemic (Mutt+ 77) was “-”. In addition, in the assay on brain arteries, the vasodilation was 30. Moreover, in the assay on skin, the hair growth result is “+”. Moreover, in the assay with colon (Said, Mutt+ 77), the smooth muscle motility result is given as “+”. Also, in the assay with colon (Waldman+ 77), the water flow entry is recorded as “+”. In addition, the arterial relaxation result with uterus is given as “arterial relaxation”. In addition, the “cyclic AMP” value in the assay on brain (amygdala), in the assay with mononuclear cells and in the assay with pancreatic cells was “+” each time. The neuronal hyperpolarization entry with Schwann cell was “neuronal hyperpolarization”. Besides, the chloride secretion entry in the assay with colonic cells is on record as “+”. Also, the glycogenolypis result with cortical slices was “+”. In addition, the amylase release entry (in the assay on pancreatic acini; in assay [4]) was “+” in each case. In addition, the somatostatin release entry with dienceph. cells is “+”. In addition, the renin secretion rate result in the assay on kidney is given as “+”. In the assay on eye (Gilbard+ 88), the tear secretion entry was “+”. The intraocular pressure entry in the assay with eye (Mittag+ 87) is on record as “-”. Also, the neuronal survival result with spinal cord cult. is “+”. Moreover, the “reaction time on a nociceptive test” value in assay [5] is on record as “reduced reaction time”. In addition, in the assay with arterial cells, the adenylate cyclase result was “+”. In the assay with gastric mucosa, the “cyclic Amp” value was “+”. The pepsinogen secretion result in the assay on gastric mucosa is reported as “+”.

For `CN1CC[C@]23c4c5ccc(O)c4O[C@H]2[C@@H](O)C=C[C@H]3[C@H]1C5.O=S(=O)(O)O` [morphine sulfate], the “TFL compared with other groups (significance)” value is “significantly greater than saline at 15 min. and all other groups except morphine 25 mcg at all points from 30-60 min” in [1] (intrathecal, 5 mcg); “significantly greater than all other groups at all points from 5-60 minutes” in [1] (intrathecal, 25 mcg, p<0.05, two-tailed, Duncan test). Moreover, the “elevation in vocalization threshold” value in assay [6] (25 mcg) is reported as 60%. Besides, the “vocalization threshold compared with saline group (significance)” value is “significantly greater than the saline group” in assay [6] (25 mcg, p<0.05, listed as morphine); “significant elevation in vocalization threshold over the saline group at 20 and 30 min. post injection” in assay [6] (25 mcg, p<0.05).

With “TRLRKQMAVKKYLNSILN-NH2 [VIP 11-28, NH--Thr--Arg--Leu--Arg--Lys--Gln--Met--Ala--Val--Lys--Lys--Tyr--Leu--Asn--Ser--Ile--Leu--Asn--Amide]”, the “TFL change compared with saline group (significance)” value in assay [1] (intrathecal, 25 mcge, p<0.05, two-tailed, multiple t-test) is given as “significantly greater than the saline group”. For the same compound, the “mean TFL elevation, maximum, greater than the preinjection baseline level” value in assay [1] (intravenous (jugular vein catheter), 3 mg, 1 minute after injection, n=10) is given as 80%. Besides, the “TFL compared with saline control group (significance)” value in assay [1] (intravenous, 3 mg, p<0.05, 2-tailed, Scheffe test) is “significantly greater effect than saline”. The “smooth muscle relaxant action” value in the assay on smooth muscle was “has shown smooth muscle relaxant action”. Also, in [7], the “time of maximum vocalization threshold after injection” value was found to be 1 min and the “vocalization threshold compared with saline (significance)” value is “approached, but did not reach, significance; also recorded: approaching, but not attaining, significance”. The “elevation in vocalization threshold” value in [6] (25 mcge) was determined as 170%. Moreover, the “vocalization threshold to tail shock, increase over baseline (pre-injection) levels” value in [6] (25 mcge, first minute after injection, n=10) stood at 70%. Moreover, the “persistence of the significant threshold elevating effect” value in assay [6] (25 mcge, vocalization threshold) is ≥ 60 min. Further, in assay [6] (25 mcge, at 1-15, 30 and 60 min. postinjection, p<0.05), the “vocalization threshold elevation compared with 25 mcg morphine sulfate (significance)” value was “significantly greater than both the morphine and the saline groups; also recorded: significantly more effective in elevating vocalization thresholds than 25 mcg morphine sulfate”. In assay [6] (25 mcge, p<0.05, 2-tailed, multiple t-tests), the “vocalization threshold compared with saline control group (significance)” value is on record as “elevated over the saline control group levels at each test for the duration of the 60 min. test period”. Besides, the “persistence of threshold elevating effect longer than analgesia produced by VIP 1-28” value in assay [6] (vocalization threshold) is “at least 30 min”. Besides, the “onset of analgesia post i.t. injection” value in assay [6] (vocalization threshold test) came out at 1 min.
